Measured values taken from ChEMBL document CHEMBL1143532 (Bioorg Med Chem Lett, 2005).

Tests used:
[1] = molecular target: Neuronal acetylcholine receptor; alpha4/beta2 (Homo sapiens, UniProt P17787+P43681); experiment: Binding affinity towards Nicotinic acetylcholine receptor alpha4-beta2; Not significant; type: protein complex
[2] = molecular target: T1, Neuronal acetylcholine receptor subunit alpha-7 (Rattus norvegicus, UniProt Q05941); experiment: Inhibitory constant against [3H]methyllycaconitine binding towards Nicotinic acetylcholine receptor alpha-7 of rat brain hippocampus; type: tissue-based
T1 sequence (Q05941 whole entry): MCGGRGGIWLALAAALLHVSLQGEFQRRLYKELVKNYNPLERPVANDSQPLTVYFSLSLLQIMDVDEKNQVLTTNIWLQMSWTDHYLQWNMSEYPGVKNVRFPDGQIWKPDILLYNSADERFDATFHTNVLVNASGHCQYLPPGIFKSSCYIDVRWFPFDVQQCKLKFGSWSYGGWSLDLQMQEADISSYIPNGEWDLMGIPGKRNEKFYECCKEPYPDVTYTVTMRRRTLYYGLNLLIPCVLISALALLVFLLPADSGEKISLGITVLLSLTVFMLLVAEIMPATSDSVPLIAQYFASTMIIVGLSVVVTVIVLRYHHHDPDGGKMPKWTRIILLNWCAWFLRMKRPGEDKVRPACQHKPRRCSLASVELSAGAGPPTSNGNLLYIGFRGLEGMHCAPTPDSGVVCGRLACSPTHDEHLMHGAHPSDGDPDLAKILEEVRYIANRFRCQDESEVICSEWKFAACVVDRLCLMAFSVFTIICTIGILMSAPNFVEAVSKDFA

[3] = molecular target: T1, Neuronal acetylcholine receptor subunit alpha-7; experiment: Potency against rat nicotinic acetylcholine alpha-7 subunit expressed in Xenopus oocytes as current activation; type: functional, cell-based, Oocyte
[4] = molecular target: Neuronal acetylcholine receptor subunit alpha-7 (Rattus norvegicus) (UniProt Q05941); experiment: Intrinsic activity against rat nicotinic acetylcholine alpha-7 subunit expressed in Xenopus oocytes as current activation; type: functional, cell-based; details: Oocyte
Neuronal acetylcholine receptor subunit alpha-7 (Rattus norvegicus), sequence (Q05941 whole entry): as above

Neuronal acetylcholine receptor; alpha4/beta2, sequence (P17787 whole entry): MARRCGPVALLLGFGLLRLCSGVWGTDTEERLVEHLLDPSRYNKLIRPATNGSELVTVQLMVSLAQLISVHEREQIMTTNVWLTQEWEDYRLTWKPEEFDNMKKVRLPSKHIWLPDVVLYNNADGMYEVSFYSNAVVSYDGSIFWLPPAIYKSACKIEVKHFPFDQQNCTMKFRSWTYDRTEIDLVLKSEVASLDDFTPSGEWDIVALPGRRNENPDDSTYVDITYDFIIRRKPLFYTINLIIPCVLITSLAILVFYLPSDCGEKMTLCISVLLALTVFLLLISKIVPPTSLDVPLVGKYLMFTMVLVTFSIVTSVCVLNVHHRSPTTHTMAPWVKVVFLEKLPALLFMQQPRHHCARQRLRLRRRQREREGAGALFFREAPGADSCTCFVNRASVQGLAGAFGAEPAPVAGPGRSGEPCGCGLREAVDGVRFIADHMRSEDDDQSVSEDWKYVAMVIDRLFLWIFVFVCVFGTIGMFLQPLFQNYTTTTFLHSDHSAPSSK
Neuronal acetylcholine receptor; alpha4/beta2, sequence (P43681 whole entry): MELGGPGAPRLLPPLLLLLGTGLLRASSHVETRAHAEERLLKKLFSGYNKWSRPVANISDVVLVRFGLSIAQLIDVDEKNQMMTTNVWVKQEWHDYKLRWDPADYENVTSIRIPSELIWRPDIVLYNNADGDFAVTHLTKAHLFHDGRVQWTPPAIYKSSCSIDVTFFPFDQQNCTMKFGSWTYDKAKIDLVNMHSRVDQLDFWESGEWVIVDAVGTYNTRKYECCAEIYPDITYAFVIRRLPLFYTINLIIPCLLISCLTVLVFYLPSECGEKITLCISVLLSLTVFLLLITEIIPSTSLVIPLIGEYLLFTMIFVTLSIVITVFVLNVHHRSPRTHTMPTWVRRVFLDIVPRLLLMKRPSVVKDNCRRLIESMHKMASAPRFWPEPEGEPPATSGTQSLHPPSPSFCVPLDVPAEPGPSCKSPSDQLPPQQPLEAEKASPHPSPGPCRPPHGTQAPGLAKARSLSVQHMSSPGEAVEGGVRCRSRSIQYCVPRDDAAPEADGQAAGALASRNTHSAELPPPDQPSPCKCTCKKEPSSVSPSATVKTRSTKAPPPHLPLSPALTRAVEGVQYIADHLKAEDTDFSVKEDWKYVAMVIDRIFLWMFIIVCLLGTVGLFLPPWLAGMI

| SMILES | Ki [1] [nM] | Ki [2] [nM] | EC50 [3] [nM] | Imax [4] |
| --- | --- | --- | --- | --- |
| O=C(N[C@@H]1C2CCN(CC2)[C@@H]1Cc1cccnc1)c1csc(Br)c1 | > 10000 | 0.4 | – | – |
| COc1ccc(NC(=O)N[C@@H]2C3CCN(CC3)[C@@H]2Cc2cccnc2)c(OC)c1 | > 10000 | 31 | – | – |
| O=C(Nc1ccccc1)O[C@@H]1C2CCN(CC2)[C@@H]1Cc1cccnc1 | > 10000 | – | – | – |
| O=C(Nc1cccc(C(F)(F)F)c1)N[C@@H]1C2CCN(CC2)[C@@H]1Cc1cccnc1 | > 10000 | 91 | – | – |
| CC(C)Oc1cncc(C[C@@H]2[C@H](OC(=O)Nc3ccc(Br)cc3)C3CCN2CC3)c1 | > 10000 | 7020 | – | – |
| O=C(N[C@@H]1C2CCN(CC2)[C@@H]1Cc1cccnc1)c1ccsc1 | > 10000 | 790 | – | – |
| O=C(Nc1cccc(F)c1)N[C@@H]1C2CCN(CC2)[C@@H]1Cc1cccnc1 | > 10000 | 6 | – | – |
| C/C(=C\c1ccccc1)C(=O)N[C@@H]1C2CCN(CC2)[C@@H]1Cc1cccnc1 | > 10000 | 5 | – | – |
| O=C(NC1CC1c1ccccc1)O[C@@H]1C2CCN(CC2)[C@@H]1Cc1cccnc1 (some centres not stated) | > 10000 | 103 | – | – |
| COc1ccc(NC(=O)N[C@@H]2C3CCN(CC3)[C@@H]2Cc2cccnc2)cc1 | > 10000 | 37 | – | – |
| COc1ccc(NC(=O)O[C@@H]2C3CCN(CC3)[C@@H]2Cc2cccnc2)cc1 | > 10000 | 5 | 300 | 0.19 |
| O=C(Nc1ccc(Br)cc1)O[C@@H]1C2CCN(CC2)[C@@H]1Cc1ccsc1 | > 10000 | 534 | – | – |
| CSc1ccc(NC(=O)N[C@@H]2C3CCN(CC3)[C@@H]2Cc2cccnc2)cc1 | > 10000 | 6 | – | – |
| O=C(Nc1ccc(Br)cc1)O[C@@H]1C2CCN(CC2)[C@@H]1Cn1ccnc1 | > 10000 | 10 | – | – |
| O=C(N[C@@H]1C2CCN(CC2)[C@@H]1Cc1cccnc1)c1ccc2ccccc2c1O | > 10000 | 1 | – | – |
| O=C(Nc1ccc(Br)cc1)O[C@@H]1C2CCN(CC2)[C@@H]1Cc1ccccc1 | > 10000 | 838 | – | – |
| O=C(NC1CC1c1ccccc1)N[C@@H]1C2CCN(CC2)[C@@H]1Cc1cccnc1 (some centres not stated) | > 10000 | – | – | – |
| COc1ccccc1NC(=O)N[C@@H]1C2CCN(CC2)[C@@H]1Cc1cccnc1 | > 10000 | 30 | – | – |
| COc1ccc(C[C@@H]2[C@H](OC(=O)Nc3ccc(Br)cc3)C3CCN2CC3)cc1 | > 10000 | > 10000 | – | – |
| COc1ccc(S(=O)(=O)N[C@@H]2C3CCN(CC3)[C@@H]2Cc2cccnc2)cc1 | > 10000 | 8920 | – | – |
| O=S(=O)(N[C@@H]1C2CCN(CC2)[C@@H]1Cc1cccnc1)c1ccccc1 | > 10000 | 418 | – | – |

| SMILES | Ki [1] [nM] | Ki [2] [nM] | EC50 [3] [nM] | Imax [4] |
| --- | --- | --- | --- | --- |
| O=C(Nc1ccc(Br)cc1)O[C@@H]1C2CCN(CC2)[C@@H]1Cc1cnccc1Oc1ccccc1 | > 10000 | > 10000 | – | – |
| N#Cc1cccc(NC(=O)N[C@@H]2C3CCN(CC3)[C@@H]2Cc2cccnc2)c1 | > 10000 | 170 | – | – |
| O=C(N[C@@H]1C2CCN(CC2)[C@@H]1Cc1cccnc1)c1cc2ccccc2o1 | – | – | – | 1 |
| O=C(NCc1ccc(Br)cc1)N[C@@H]1C2CCN(CC2)[C@@H]1Cc1cccnc1 | > 10000 | 274 | – | – |
| O=C(N[C@@H]1C2CCN(CC2)[C@@H]1Cc1cccnc1)c1cccc(Br)c1 | > 10000 | 64 | – | – |
| O=C(Nc1ccc(Br)cc1)O[C@@H]1C2CCN(CC2)[C@@H]1Cc1cccnc1 | > 10000 | – | – | – |
| O=C(N[C@@H]1C2CCN(CC2)[C@@H]1Cc1cccnc1)c1ccc(Sc2ccccc2)cc1 | > 10000 | – | – | – |
| O=C(Nc1ccc(Cl)c(Cl)c1)N[C@@H]1C2CCN(CC2)[C@@H]1Cc1cccnc1 | > 10000 | 34 | – | – |
| O=C(N[C@@H]1C2CCN(CC2)[C@@H]1Cc1cccnc1)c1c[nH]c2ccccc12 | > 10000 | 8 | – | – |
| O=C(Nc1ccc(Br)cc1)O[C@@H]1C2CCN(CC2)[C@@H]1Cc1cncnc1 | > 10000 | 40 | – | – |
| O=C(Nc1ccc(Br)cc1)OC1CN2CCC1CC2 (configuration not stated) | > 10000 | – | – | – |
| O=C(Nc1ccc(Sc2ccccc2)cc1)O[C@@H]1C2CCN(CC2)[C@@H]1Cc1cccnc1 | > 10000 | 9 | – | – |
| O=C(Nc1ccc(F)cc1)O[C@@H]1C2CCN(CC2)[C@@H]1Cc1cccnc1 | > 10000 | 6 | – | – |
| O=C(Nc1ccc(-c2ccccc2)cc1)O[C@@H]1C2CCN(CC2)[C@@H]1Cc1cccnc1 | > 10000 | 500 | – | – |
| O=C(Nc1cccc(Br)c1)N[C@@H]1C2CCN(CC2)[C@@H]1Cc1cccnc1 | > 10000 | 52 | – | – |
| O=C(Nc1ccccc1)OC1CN2CCC1CC2 (configuration not stated) | > 10000 | – | – | – |
| COc1cncc(C[C@@H]2[C@H](OC(=O)Nc3ccc(Br)cc3)C3CCN2CC3)c1 | > 10000 | 144 | – | – |
| O=C(Nc1ccc(Br)cc1)O[C@@H]1C2CCN(CC2)[C@@H]1Cc1ccc(F)cc1 | > 10000 | 263 | – | – |
| COc1ccncc1C[C@@H]1[C@H](OC(=O)Nc2ccc(Br)cc2)C2CCN1CC2 | > 10000 | 29 | – | – |
| Cn1cc(C(=O)N[C@@H]2C3CCN(CC3)[C@@H]2Cc2cccnc2)c2ccccc21 | > 10000 | 521 | – | – |
| O=S(=O)(Cc1ccccc1)N[C@@H]1C2CCN(CC2)[C@@H]1Cc1cccnc1 | > 10000 | 8840 | – | – |

| SMILES | Ki [1] [nM] | Ki [2] [nM] | EC50 [3] [nM] | Imax [4] |
| --- | --- | --- | --- | --- |
| O=C(Nc1ccc(Br)cc1)O[C@@H]1C2CCN(CC2)[C@@H]1Cc1cc2ccccc2o1 | > 10000 | 8390 | – | – |
| O=C(Nc1ccccc1)N[C@@H]1C2CCN(CC2)[C@@H]1Cc1cccnc1 | > 10000 | 16 | – | – |
| O=C(Nc1ccc(Oc2ccccc2)cc1)N[C@@H]1C2CCN(CC2)[C@@H]1Cc1cccnc1 | > 10000 | 16 | – | – |
| O=S(=O)(N[C@@H]1C2CCN(CC2)[C@@H]1Cc1cccnc1)c1ccc(Br)cc1 | > 10000 | – | – | – |
| NC(=O)Cc1ccc(S(=O)(=O)N[C@@H]2C3CCN(CC3)[C@@H]2Cc2cccnc2)cc1 | > 10000 | 146 | – | – |
| O=C(Nc1ccc(Br)cc1)N[C@@H]1C2CCN(CC2)[C@@H]1Cc1cccnc1 | > 10000 | 9 | – | – |
| Cn1cccc1C(=O)N[C@@H]1C2CCN(CC2)[C@@H]1Cc1cccnc1 | > 10000 | 155 | – | – |
| O=C(Nc1ccc(Br)cc1)O[C@@H]1C2CCN(CC2)[C@@H]1Cc1ccccn1 | > 10000 | > 10000 | – | – |
| O=C(Nc1ccc(Oc2ccccc2)cc1)O[C@@H]1C2CCN(CC2)[C@@H]1Cc1cccnc1 | > 10000 | 50 | – | – |
| CN(C)c1ccc(NC(=O)N[C@@H]2C3CCN(CC3)[C@@H]2Cc2cccnc2)cc1 | > 10000 | 38 | – | – |
| CN(C)c1ccc(C[C@@H]2[C@H](OC(=O)Nc3ccc(Br)cc3)C3CCN2CC3)cc1 | > 10000 | – | – | – |
| O=C(Nc1ccc(F)cc1)N[C@@H]1C2CCN(CC2)[C@@H]1Cc1cccnc1 | > 10000 | 74 | – | – |
| COc1cccc(NC(=O)N[C@@H]2C3CCN(CC3)[C@@H]2Cc2cccnc2)c1 | > 10000 | 43 | – | – |
| O=C(NCc1ccccc1)O[C@@H]1C2CCN(CC2)[C@@H]1Cc1cccnc1 | > 10000 | 670 | – | – |
| O=C(Nc1ccc(Br)cc1)O[C@@H]1C2CCN(CC2)[C@@H]1Cc1ccco1 | > 10000 | 234 | – | – |
| O=C(Nc1ccc(Sc2ccccc2)cc1)OC1CN2CCC1CC2 (configuration not stated) | > 10000 | 53 | – | – |
| O=C(Nc1ccc(Br)cc1)O[C@@H]1C2CCN(CC2)[C@@H]1Cc1cnc2ccccc2c1 | > 10000 | 10000 | – | – |
| O=C(Nc1ccc(-c2ccccc2)cc1)N[C@@H]1C2CCN(CC2)[C@@H]1Cc1cccnc1 | > 10000 | 424 | – | – |
| CS(=O)(=O)c1ccc(C[C@@H]2[C@H](OC(=O)Nc3ccc(Br)cc3)C3CCN2CC3)cc1 | > 10000 | 6780 | – | – |
| C/C(=C\C(=O)N[C@@H]1C2CCN(CC2)[C@@H]1Cc1cccnc1)c1ccccc1 | > 10000 | 87 | – | – |
